Assay [1] is described as follows: Competitive inhibition of Escherichia coli EntB expressed in Escherichia coli BL21(DE3) using chorismate as substrate.
Assay [2] concerns the target T1, Chorismatase (Streptomyces hygroscopicus subsp. ascomyceticus, UniProt Q9KID9).
T1 sequence (Q9KID9 whole entry): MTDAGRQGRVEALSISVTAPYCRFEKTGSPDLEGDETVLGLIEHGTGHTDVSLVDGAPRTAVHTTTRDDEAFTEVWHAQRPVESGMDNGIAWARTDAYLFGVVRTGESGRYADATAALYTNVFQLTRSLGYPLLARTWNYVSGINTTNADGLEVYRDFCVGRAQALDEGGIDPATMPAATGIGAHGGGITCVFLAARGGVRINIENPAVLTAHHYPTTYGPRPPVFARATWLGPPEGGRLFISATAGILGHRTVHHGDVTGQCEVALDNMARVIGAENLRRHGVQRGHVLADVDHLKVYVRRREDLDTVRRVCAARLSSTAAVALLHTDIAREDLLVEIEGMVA
The experiment in a line: Competitive inhibition of Streptomyces hygroscopicus subsp. ascomyceticus chorismatase FkbO expressed in Escherichia coli BL21(DE3) using chorismate as substrate.

Assay [3] can be described thus: Inhibition of Escherichia coli EntB expressed in Escherichia coli BL21(DE3) using chorismate as substrate after 5 mins by LDH-coupled spectrophotometric assay.
Assay [4] can be described thus: Inhibition of Streptomyces hygroscopicus hyg5 expressed in Escherichia coli BL21(DE3) using chorismate as substrate after 5 mins by LDH-coupled spectrophotometric assay.
Assay [5] addresses T1, Chorismatase. The assay is described as follows: Inhibition of Streptomyces hygroscopicus subsp. ascomyceticus chorismatase FkbO expressed in Escherichia coli BL21(DE3) using chorismate as substrate after 5 mins by LDH-coupled spectrophotometric assay.

For orientation: Ki means a dissociation constant, usually derived from enzyme kinetics or from competition with a known ligand. Lower therefore signals tighter binding. The IC50 is the midpoint of a concentration-inhibition curve. Low readings indicate inhibition by little substance, high ones a need for much substance. Turning to `O=C(O)/C=C/c1cccc(C(=O)O)c1`, the Ki in assay [1] amounted to 0.122 mM; on Chorismatase [2] it was 19.6 mM. Besides, the IC50 in assay [3] came out at 0.209 mM; in assay [4] it was 68.5 mM; at Chorismatase [5], 45 mM.

For the compound `O=C(O)CCc1cccc(C(=O)O)c1`, the Ki came to 0.282 mM in assay [1] and 1.02 mM at Chorismatase [2]. For the same compound, the IC50 stood at 0.472 mM in assay [3], 1.25 mM in assay [4] and 1.09 mM at Chorismatase [5].
